Data on 35 compounds can be found in ChEMBL document CHEMBL1201862, “PubChem BioAssay data set” (2004).

In data set [1] the target is Cytochrome P450 2C19 (Homo sapiens, UniProt P33261). The data set can be described thus: Cytochrome panel assay with activity outcomes. Panel member name: p450-cyp2c19 Compounds with AC50 equal or less than 10 uM are considered active. Format: functional. The following applies: read-out: AC50.
The target in data set [2] is T1, Cytochrome P450 1A2 (Homo sapiens, UniProt P05177).
T1 sequence (P05177 whole entry): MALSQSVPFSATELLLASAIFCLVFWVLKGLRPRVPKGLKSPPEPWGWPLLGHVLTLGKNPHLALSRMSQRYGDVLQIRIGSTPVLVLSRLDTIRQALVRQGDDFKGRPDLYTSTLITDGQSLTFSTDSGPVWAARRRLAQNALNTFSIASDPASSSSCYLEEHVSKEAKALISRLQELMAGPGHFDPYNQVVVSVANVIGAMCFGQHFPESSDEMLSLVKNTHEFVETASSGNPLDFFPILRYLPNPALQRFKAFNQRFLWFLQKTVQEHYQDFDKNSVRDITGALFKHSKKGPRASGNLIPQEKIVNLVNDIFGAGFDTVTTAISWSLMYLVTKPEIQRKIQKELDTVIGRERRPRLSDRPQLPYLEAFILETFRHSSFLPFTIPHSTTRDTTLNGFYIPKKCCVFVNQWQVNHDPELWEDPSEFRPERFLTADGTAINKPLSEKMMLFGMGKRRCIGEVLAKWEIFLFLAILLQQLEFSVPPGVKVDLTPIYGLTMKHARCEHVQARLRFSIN

Data set [3] addresses Cytochrome P450 2C9 (Homo sapiens, UniProt P11712).
Data set [4] relates to H9c2. The data set can be described thus: cells. The class given is functional, cell-based. The following applies: Rattus norvegicus, H9c2, Myocardium.
Data set [5] deals with P388/ADR. The data set is described as follows: cells. The class given is functional. Conditions: Mus musculus.
Data set [6] concerns SN12K1. The data set is described as follows: cells. Format: functional. Conditions: Homo sapiens.
Data set [7] has as its system P388. The data set can be described thus: cells. The class given is functional. Conditions: Mus musculus.
A short description of data set [8]: NIH-3T3 fibroblast cytotoxicity, dose response, cytotoxicity control, cell-based, fluorescence, Alamar Blue, secondary assay (AID 2327).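 Also: NIH-3T3 mouse fibroblasts cultured with fluconazole at 8 µg/mL.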 The class given is functional.
The nature of data set [9]: fluconazole-exposed Candida albicans growth modulators – fluorescence, retest, confirmation (AID 2467). Format: functional, cell-based.
For data set [10], the target named is T2, Leucine aminopeptidase (Plasmodium falciparum 3D7, UniProt Q8IL11).
T2 sequence (Q8IL11 whole entry): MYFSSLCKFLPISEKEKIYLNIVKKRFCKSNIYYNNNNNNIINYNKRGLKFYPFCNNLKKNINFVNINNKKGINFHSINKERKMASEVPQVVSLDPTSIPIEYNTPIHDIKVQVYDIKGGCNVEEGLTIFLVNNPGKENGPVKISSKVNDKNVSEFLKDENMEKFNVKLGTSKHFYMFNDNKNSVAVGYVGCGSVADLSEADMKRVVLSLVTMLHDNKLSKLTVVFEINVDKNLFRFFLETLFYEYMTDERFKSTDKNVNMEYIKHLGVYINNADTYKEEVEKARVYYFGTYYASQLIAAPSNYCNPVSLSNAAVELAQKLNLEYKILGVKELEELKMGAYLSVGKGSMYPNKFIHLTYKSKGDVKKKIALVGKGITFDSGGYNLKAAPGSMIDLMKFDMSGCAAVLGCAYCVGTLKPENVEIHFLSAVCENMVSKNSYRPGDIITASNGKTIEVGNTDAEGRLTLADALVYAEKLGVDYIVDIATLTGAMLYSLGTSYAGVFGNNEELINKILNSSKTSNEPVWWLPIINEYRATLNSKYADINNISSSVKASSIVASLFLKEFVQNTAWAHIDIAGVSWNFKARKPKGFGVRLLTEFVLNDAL
The data set is described as follows: P. falciparum M17LAP inhibitors, primary screen, biochemical, fluorogenic H-Leu-NHMec substrate, 1536-well (AID 1619). The class given is functional.

Data set [11] deals with T3, Protein skinhead-1 (Caenorhabditis elegans, UniProt P34707).
T3 sequence (P34707 whole entry): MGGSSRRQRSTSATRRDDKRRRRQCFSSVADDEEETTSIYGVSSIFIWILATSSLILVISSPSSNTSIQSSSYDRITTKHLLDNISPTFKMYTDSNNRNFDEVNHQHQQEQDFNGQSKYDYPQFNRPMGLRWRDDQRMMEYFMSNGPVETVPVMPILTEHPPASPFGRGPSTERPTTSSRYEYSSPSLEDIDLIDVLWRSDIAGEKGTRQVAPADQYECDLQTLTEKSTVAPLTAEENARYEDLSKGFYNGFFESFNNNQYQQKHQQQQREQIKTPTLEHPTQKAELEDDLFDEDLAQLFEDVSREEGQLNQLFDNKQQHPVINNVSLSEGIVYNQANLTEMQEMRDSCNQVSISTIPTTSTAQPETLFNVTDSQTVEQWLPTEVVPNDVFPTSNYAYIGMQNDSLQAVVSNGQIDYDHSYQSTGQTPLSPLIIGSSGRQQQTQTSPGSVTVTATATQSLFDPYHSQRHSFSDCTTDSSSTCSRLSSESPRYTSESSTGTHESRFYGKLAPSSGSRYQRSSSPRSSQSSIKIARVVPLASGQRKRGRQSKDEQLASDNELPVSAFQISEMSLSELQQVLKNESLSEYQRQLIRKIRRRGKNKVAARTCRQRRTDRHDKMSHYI
The class given is functional.

The nature of data set [12]: cells. Format: functional.
The subject of data set [13] is INS1. The data set is described as follows: INS-1E survival protection against cytokine death – cell-based, luminescence, retest, dose response (AID 449756).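 Also: cell death triggered by IL-1 beta plus TNF-alpha plus IFN-gamma mixture; protective hits raise ATP signal compared with cytokine alone wells.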 The class given is functional. Conditions: Rattus norvegicus.
Data set [14] deals with Cytochrome P450 3A4 (Homo sapiens, UniProt P08684).
Sequence of Cytochrome P450 3A4 (P08684 whole entry): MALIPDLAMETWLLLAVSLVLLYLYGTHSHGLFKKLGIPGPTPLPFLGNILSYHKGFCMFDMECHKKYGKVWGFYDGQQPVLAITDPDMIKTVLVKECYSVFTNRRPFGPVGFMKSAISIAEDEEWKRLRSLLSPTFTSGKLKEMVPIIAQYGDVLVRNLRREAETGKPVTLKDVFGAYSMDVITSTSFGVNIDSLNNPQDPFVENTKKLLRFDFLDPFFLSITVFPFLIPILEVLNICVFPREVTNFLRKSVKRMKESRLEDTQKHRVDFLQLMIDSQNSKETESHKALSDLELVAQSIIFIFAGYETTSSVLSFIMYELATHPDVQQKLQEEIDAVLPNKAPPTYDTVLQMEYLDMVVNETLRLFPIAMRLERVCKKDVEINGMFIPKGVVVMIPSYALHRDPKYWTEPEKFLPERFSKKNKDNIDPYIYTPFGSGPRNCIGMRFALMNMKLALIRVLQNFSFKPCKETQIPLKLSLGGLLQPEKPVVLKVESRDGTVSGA
The nature of data set [15]: microbe, parasite or virus in culture. The class given is functional. The following applies: Mycobacterium tuberculosis.
The nature of data set [16]: blockers of HIV-1 envelope-mediated cell-cell fusion – cherry-pick, dose response (AID 652057). Format: functional, cell-based.
In data set [17] the target is Luciferin 4-monooxygenase (Photinus pyralis, UniProt P08659). The data set can be described thus: inhibition of purified Photinus pyralis luciferase – biochemical, luminescence, dose response (AID 1891).
Sequence of Luciferin 4-monooxygenase (P08659 whole entry): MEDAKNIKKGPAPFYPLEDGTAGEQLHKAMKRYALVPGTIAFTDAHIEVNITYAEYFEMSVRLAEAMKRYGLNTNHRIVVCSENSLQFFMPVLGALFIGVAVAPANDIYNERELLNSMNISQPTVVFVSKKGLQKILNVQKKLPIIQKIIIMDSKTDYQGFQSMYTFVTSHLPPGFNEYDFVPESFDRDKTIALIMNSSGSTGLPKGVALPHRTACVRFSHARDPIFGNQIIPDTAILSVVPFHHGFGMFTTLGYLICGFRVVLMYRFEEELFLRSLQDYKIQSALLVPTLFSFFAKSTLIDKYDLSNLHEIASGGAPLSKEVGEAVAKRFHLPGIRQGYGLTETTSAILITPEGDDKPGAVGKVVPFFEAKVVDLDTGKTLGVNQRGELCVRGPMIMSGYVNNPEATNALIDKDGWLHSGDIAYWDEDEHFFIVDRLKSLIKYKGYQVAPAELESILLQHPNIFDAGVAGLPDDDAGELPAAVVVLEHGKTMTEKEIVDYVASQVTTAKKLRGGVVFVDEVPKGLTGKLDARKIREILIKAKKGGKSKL
The nature of data set [18]: Luminescence Cell-Based Dose Confirmation HTS to Identify Inhibitors of Platelet Dense Granule Release. [Related pubchem assays: 1663 (Primary HTS), 1678 (Summary of Project)]. Format: functional.
Data set [19] has as its target Cytochrome P450 2D6 (Homo sapiens, UniProt P10635).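 Also: CYP2D6 member of a cytochrome P450 panel assay.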

Activity calls are given as the source filed them. Some results are limits rather than exact numbers.

Sequence of Cytochrome P450 2C9 (P11712 whole entry): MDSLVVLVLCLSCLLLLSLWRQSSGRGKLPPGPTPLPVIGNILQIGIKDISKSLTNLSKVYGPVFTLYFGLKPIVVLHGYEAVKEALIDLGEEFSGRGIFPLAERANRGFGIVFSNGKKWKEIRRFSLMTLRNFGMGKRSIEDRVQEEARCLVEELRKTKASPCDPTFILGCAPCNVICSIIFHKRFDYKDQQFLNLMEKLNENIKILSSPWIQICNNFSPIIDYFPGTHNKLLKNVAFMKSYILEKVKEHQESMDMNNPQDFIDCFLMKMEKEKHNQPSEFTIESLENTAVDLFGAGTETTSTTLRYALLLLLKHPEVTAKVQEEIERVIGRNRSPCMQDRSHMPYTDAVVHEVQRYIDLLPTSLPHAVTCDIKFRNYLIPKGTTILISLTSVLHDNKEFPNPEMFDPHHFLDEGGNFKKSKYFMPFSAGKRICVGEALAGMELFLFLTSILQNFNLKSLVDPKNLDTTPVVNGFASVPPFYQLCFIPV
Sequence of Cytochrome P450 2C19 (P33261 whole entry): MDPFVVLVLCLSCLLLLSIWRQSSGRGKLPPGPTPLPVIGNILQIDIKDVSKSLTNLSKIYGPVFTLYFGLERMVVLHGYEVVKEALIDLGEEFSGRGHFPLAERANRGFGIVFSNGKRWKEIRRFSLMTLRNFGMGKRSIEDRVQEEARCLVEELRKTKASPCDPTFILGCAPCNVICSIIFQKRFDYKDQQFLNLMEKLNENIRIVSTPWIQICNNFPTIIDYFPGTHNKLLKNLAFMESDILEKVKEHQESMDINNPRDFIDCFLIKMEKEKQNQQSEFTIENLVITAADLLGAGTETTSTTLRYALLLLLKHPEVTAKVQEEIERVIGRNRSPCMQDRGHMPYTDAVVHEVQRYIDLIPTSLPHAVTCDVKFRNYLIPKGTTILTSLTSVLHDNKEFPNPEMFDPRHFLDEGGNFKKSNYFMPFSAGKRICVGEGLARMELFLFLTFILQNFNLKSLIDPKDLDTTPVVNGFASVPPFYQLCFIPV
Sequence of Cytochrome P450 2D6 (P10635 whole entry): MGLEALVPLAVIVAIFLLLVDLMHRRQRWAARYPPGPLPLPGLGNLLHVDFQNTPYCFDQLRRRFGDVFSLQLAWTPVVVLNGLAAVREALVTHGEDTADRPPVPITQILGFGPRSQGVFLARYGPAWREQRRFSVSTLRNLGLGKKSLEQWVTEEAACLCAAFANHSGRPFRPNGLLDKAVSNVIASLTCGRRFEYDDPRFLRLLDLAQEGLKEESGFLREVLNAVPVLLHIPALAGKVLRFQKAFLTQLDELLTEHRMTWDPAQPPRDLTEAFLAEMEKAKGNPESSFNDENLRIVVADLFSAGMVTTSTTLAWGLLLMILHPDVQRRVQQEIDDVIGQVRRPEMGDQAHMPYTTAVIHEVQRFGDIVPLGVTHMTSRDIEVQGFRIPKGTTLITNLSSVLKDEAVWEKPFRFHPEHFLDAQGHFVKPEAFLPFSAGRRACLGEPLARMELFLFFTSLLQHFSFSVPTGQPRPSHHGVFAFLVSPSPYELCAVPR

For the compound `Clc1ccc(Cl)c(OCc2cc(-c3ccccc3Cl)on2)c1`, the AC50 was 0.891 µM (inconclusive) in data set [1], 0.282 µM (inconclusive) in data set [2] and “inconclusive” in data set [3].
Regarding `C[C@H](NC(=O)c1[nH]cnc1C(=O)NCC(=O)OCc1ccccc1)C(=O)OCc1ccccc1`, the IC50 in [4] was 19.4 µM (active).
For `O=NN(CCCl)C(=O)N[C@H]1CC[C@H](C(=O)O)CC1`, the values for the GI50 in [5], in data set [6] and in data set [7] were 7.1 µM (inactive), > 100 µM (inactive) and 4.86 µM (inactive), respectively.
In the case of `NC(=O)c1ccc(Nc2nnc(-c3ccc(O)cc3)c3ccccc23)cc1`, the EC50 was > 150 µM (inactive) in data set [8] and > 38 µM (not active) in data set [9]. Moreover, the IC50 in data set [4] was 15 µM (active).
Regarding `C=C1C(=O)C[C@@]23CCC[C@@]12CC(OCOC)C3` (stereo partly specified), the GI50 in data set [5] was 0.531 µM (active); in data set [6] it was 1.84 µM (inactive); in data set [7], 0.431 µM (active).
As to `COc1cc(/C=C(\C#N)C(=O)NCC2CCCO2)c([N+](=O)[O-])cc1OC` (stereo unspecified), in data set [3], the AC50 result was “inconclusive”.
Take `NC(=O)c1ncn2c1NC(=O)CC2`: the GI50 in data set [5] was > 100 µM (inactive); in data set [6], > 100 µM (inactive); in [7], > 31.6 µM (inactive).
In the case of `O=S(=O)(Nc1ccc(C(F)(F)F)cc1)c1c[nH]cn1`, the results for the IC50 in [10] and in [11] were 28.3 µM (active) and > 100 µM (inactive), respectively.
`O=C(NCc1cccs1)c1cc(-c2ccc(O)cc2)on1`: in data set [12], the IC50 is 45 µM (active).
For the compound `Cc1ccc(S(=O)(=O)N2CCOCC2)cc1C(=O)Nc1nc(-c2ccccn2)cs1`, the AC50 in data set [13] was 2.19 µM (active). In data set [4], the IC50 was 11.3 µM (active).
Consider `Cc1ccc(-c2ccc(=O)n(CC(=O)NCCN3CCCCC3C)n2)cc1` (stereo unspecified), for which the values for the AC50 in data set [1], in [14] and in data set [3] were 35.5 µM (inconclusive), 17.8 µM (inconclusive) and “inconclusive”, respectively.
Take `COc1ccc(Sc2nc3ccccc3n3c(C(F)(F)F)nnc23)cc1`: the AC50 in [1] was 35.5 µM (inconclusive); in data set [2] it was 3.16 µM (inconclusive); in data set [3], “inconclusive”.
With `COc1ccc(C2CC(c3sc(Nc4ccc(C)cc4)nc3C)=NN2)cc1` (stereo unspecified), the GI50 in data set [5] was 4.99 µM (inactive); in data set [6], 14.9 µM (inactive); in [7], 6.79 µM (inactive).
As to `COc1cc(NS(C)(=O)=O)ccc1Nc1c2ccccc2nc2ccccc12` [AMSACRINE], the GI50 in data set [5] is 0.265 µM (active); in data set [6], 0.106 µM (active); in [7], 0.0318 µM (active). The AC50 in data set [14] was 20 µM (inconclusive); in data set [3] it was “inconclusive”.
Take `Cc1cc2nnc(SCC(=O)OC(C)C)n2c2ccccc12`: the AC50 result in data set [3] is “inconclusive”.
On to `C=C1CC(OC)(C(O)C(=O)N[C@H]2OCO[C@H]3C2O[C@H](C[C@@H](COC)OC)C(C)(C)C3OC)O[C@H](C)[C@@H]1C` (stereo partly specified), for which the GI50 in data set [5], in data set [6] and in [7] was < 0.00482 µM (active) each time.
As for `COc1ccc(S(=O)(=O)N(C)CC(=O)NCc2ccco2)cc1`, the results for the AC50 in data set [14] and in [3] were 15.8 µM (inconclusive) and “inconclusive”, respectively.
Turning to `NC(CN(O)N=O)C(=O)O` (stereo unspecified), the GI50 in [5] is 8.45 µM (inactive); in data set [6] it was 0.792 µM (active); in [7], 16.5 µM (inactive).
`CCS(=O)(=O)N1CCC(C(=O)NCc2ccccc2OC)CC1`: the AC50 result in [3] is listed as “inconclusive”.
On to `COc1cc(C[C@H]2c3cc(OC)c(OC)cc3CCN2C)c(Oc2cc3c(cc2OC)-c2c(OC)c(OC)cc4c2[C@H](C3)N(C)CC4)cc1OC` [THALICARPINE], for which the results for the GI50 in [5], in [6] and in data set [7] were 8.51 µM (inactive), 7.93 µM (inactive) and 4.24 µM (inactive), respectively.
In the case of `CSc1ncc(C(=O)Nc2ccc(Br)cn2)c(C)n1`, in data set [15], the CC50 is > 40 µM (active).
As to `O=C(OCC(=O)N1CCCCC1)c1cc2ccccc2cc1O`, the IC50 in data set [12] was 5.15 µM (active).
Turning to `FC(F)(F)c1ccc(/C=N/N2CCN(Cc3cccc4ccccc34)CC2)cc1`, the AC50 in data set [1] was 11.2 µM (inconclusive); in data set [3] it was “inconclusive”.
Regarding `COC(=O)c1cc(OC)c(OC)cc1NC(=O)c1ccc(OC)c(OC)c1`, the IC50 in data set [4] was > 79 µM (inactive).
Regarding `CCOC(=O)Cn1c(=S)[nH]c2c(oc3ccc(Cl)cc32)c1=O`, in data set [10], the half-inhibitory concentration (IC50) is 19.5 µM (active).
Take `CC(C)(C)NC(=O)c1cc(NC(=O)c2cccs2)cc(NC(=O)c2cccs2)c1`: the IC50 in data set [4] is 11.1 µM (active).
On to `Cc1ccc(-n2cc(-c3ccccc3)c3c(N4CCOCC4)ncnc32)cc1`, for which the IC50 in data set [4] was > 79 µM (inactive).
As for `C[C@@H]1CN([C@@H](C)CO)C(=O)Cc2cc(NC(=O)c3ccncc3)ccc2O[C@H]1CN(C)Cc1ccc(Cl)c(Cl)c1`, in data set [16], the AC50 is 30.4 µM (active).
Consider `Cc1cc(NS(=O)(=O)c2ccc(NC(=O)c3cnc4scc(C)n4c3=O)cc2)nc(C)n1`, for which the IC50 in [10] is 23.1 µM (active).
Turning to `O=C(COC(=O)c1ccc([N+](=O)[O-])o1)Nc1ccc(N2CCOCC2)cc1`, the IC50 in data set [4] was > 79 µM (inactive).
`CCOc1ccc(CN(C(=O)c2oc3ccccc3c2C)C2CCS(=O)(=O)C2)cc1` (stereo unspecified): the EC50 in data set [8] was > 160 µM (inconclusive); in data set [9] it was > 38 µM (not active); in data set [17] it was 28.3 µM (active); in data set [18], > 112 µM (not active). Also, the AC50 in data set [19] and in data set [2] was 14.1 µM (inconclusive) each time.
Turning to `CN1C(=O)/C(=C/c2ccco2)S/C1=N/c1cccc(C(=O)O)c1`, the IC50 in [10] was 50.6 µM (active).
Turning to `CCC(C)NC(=O)NC(=O)N(C1CCCCC1)S(C)(=O)=O` (stereo unspecified), the AC50 in data set [1] is 17.8 µM (inconclusive); in data set [3], “inconclusive”.
With `CCCNC(=O)COC(=O)c1cc2c(=O)n3ccccc3nc2s1`, the IC50 in [12] is 39.2 µM (active).
As to `CSc1nnc(NC(=O)c2cc3ccccc3oc2=O)s1`, the IC50 in data set [4] is > 79 µM (inactive).

For orientation: AC50 means the concentration at which the activity in the assay is half-maximal. Usually IC50 stands for the concentration that inhibits the measured activity by half. As usually defined, the GI50 is the concentration at which growth is held to half of that of the control. For orientation: EC50 means the concentration at which the effect is half-maximal.
